# In patent publication US9663460B2, “Sulfur derivatives as chemokine receptor modulators” (ALLERGAN, INC., priority 2010, dated 2017):
# Target: CCR2 (Homo sapiens (Human), UniProt P41597)
# Assay: Calcium activity assayed on the FLIPR Tetra in HEK-Gqi5 cells stably expressing CCR2
# Assay type: cell-based
# Settings: FLIPR Tetra calcium assay
# CCR2, sequence (P41597 whole entry, species assumed): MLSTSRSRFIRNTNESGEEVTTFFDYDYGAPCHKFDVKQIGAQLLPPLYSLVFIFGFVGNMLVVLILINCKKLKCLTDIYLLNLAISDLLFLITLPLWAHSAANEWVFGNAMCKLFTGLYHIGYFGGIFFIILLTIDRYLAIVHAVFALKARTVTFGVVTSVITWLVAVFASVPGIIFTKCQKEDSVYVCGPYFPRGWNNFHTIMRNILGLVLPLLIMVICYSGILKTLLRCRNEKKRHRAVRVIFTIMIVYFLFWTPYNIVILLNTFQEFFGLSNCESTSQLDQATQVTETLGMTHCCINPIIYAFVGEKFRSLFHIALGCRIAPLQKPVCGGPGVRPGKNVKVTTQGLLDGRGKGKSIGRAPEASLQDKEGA
Compound,CCR2 % ANTAGONISM [%],IC50 [µM]
COc1ccc(S(=O)(=O)Cc2cccc(N)c2)c(NS(=O)(=O)c2cc3ccccc3o2)c1 [N-{2-[(3-aminobenzyl)sulfonyl]-5-methoxyphenyl}-1-benzofuran-2-sulfonamide],107,0.176
Nc1ccccc1C[S+]([O-])c1ccc(Cl)cc1NS(=O)(=O)c1cc2ccccc2o1 (stereo not drawn) [N-{2-[(2-aminobenzyl)sulfinyl]-5-chlorophenyl}-1-benzofuran-2-sulfonamide],93,0.115
O=S(=O)(Nc1cc(Cl)ccc1[S+]([O-])Cc1ccccn1)c1cc2ccccc2o1 (stereo not drawn) [N-{5-chloro-2-[(pyridin-2-ylmethyl)sulfinyl]phenyl}-1-benzofuran-2-sulfonamide],100,0.029
CC(C)Sc1ccc(Cl)cc1NS(=O)(=O)c1ccc(Cl)c(C(F)(F)F)c1 [4-chloro-N-[5-chloro-2-(isopropylthio)phenyl]-3-(trifluoromethyl)benzenesulfonamide],72,0.379
"CN(C)C(=O)C[S+]([O-])c1ccc(Cl)cc1NS(=O)(=O)c1ccc(Cl)c(C(F)(F)F)c1 (stereo not drawn) [2-{[4-chloro-2-({[4-chloro-3-(trifluoromethyl)phenyl]sulfonyl}amino)phenyl]sulfinyl}-N,N-dimethylacetamide]",100,0.268
Nc1cccc(C[S+]([O-])c2ccc(F)cc2NS(=O)(=O)c2cc3ccccc3o2)c1 (stereo not drawn) [N-{2-[(3-aminobenzyl)sulfinyl]-5-fluorophenyl}-1-benzofuran-2-sulfonamide],91,0.038
CS(=O)(=O)c1ccc(Cl)cc1NS(=O)(=O)c1cc2ccccc2o1 [N-[5-chloro-2-(methylsulfonyl)phenyl]-1-benzofuran-2-sulfonamide],93,0.042
Nc1cccc(CS(=O)(=O)c2ccc(F)cc2NS(=O)(=O)c2cc3ccccc3o2)c1 [N-{2-[(3-aminobenzyl)sulfonyl]-5-fluorophenyl}-1-benzofuran-2-sulfonamide],90,0.022
C[S+]([O-])c1ccc(Cl)cc1NS(=O)(=O)c1cc2cc(Cl)ccc2o1 (stereo not drawn) [5-chloro-N-[5-chloro-2-(methylsulfinyl)phenyl]-1-benzofuran-2-sulfonamide],92,0.655
CSc1ccc(Cl)cc1NS(=O)(=O)c1ccc(C)o1 [N-[5-chloro-2-(methylthio)phenyl]-5-methylfuran-2-sulfonamide],77,0.07
O=[N+]([O-])c1ccc(CSc2ccc(Cl)cc2NS(=O)(=O)c2cc3ccccc3o2)cc1 [N-{5-chloro-2-[(4-nitrobenzyl)thio]phenyl}-1-benzofuran-2-sulfonamide],82,0.147
Nc1cc(CS(=O)(=O)c2ccc(Cl)cc2NS(=O)(=O)c2cc3ccccc3o2)ccn1 [N-(2-{[(2-aminopyridin-4-yl)methyl]sulfonyl}-5-chlorophenyl)-1-benzofuran-2-sulfonamide],101,0.364
O=S(=O)(Nc1cc(Cl)ccc1[S+]([O-])Cc1ccccc1)c1cc2ccccc2o1 (stereo not drawn) [N-[2-(benzylsulfinyl)-5-chlorophenyl]-1-benzofuran-2-sulfonamide],85,0.027
"Nc1cccc(CS(=O)(=O)c2ccc(Cl)cc2NS(=O)(=O)c2ccc(F)cc2F)c1 [N-{2-[(3-aminobenzyl)sulfonyl]-5-chlorophenyl}-2,4-difluorobenzenesulfonamide]",89,0.718
O=S(=O)(Nc1cc(Cl)ccc1[S+]([O-])C1CCC(O)C1)c1ccc(Cl)c(C(F)(F)F)c1 (stereo not drawn) [4-chloro-N-{5-chloro-2-[(3-hydroxycyclopentyl)sulfinyl]phenyl}-3-(trifluoromethyl)benzenesulfonamide],101,0.107
O=[N+]([O-])c1cc(CSc2ccc(Cl)cc2NS(=O)(=O)c2cc3ccccc3o2)n[nH]1 [N-(5-chloro-2-{[(5-nitro-1H-pyrazol-3-yl)methyl]thio}phenyl)-1-benzofuran-2-sulfonamide],91,
C[S+]([O-])c1ccc(Cl)cc1NS(=O)(=O)c1ccc(Cl)c(C(F)(F)F)c1 (stereo not drawn) [4-chloro-N-[5-chloro-2-(methylsulfinyl)phenyl]-3-(trifluoromethyl)benzenesulfonamide],78,0.014
"CN(C)C(=O)CCS(=O)(=O)c1ccc(Cl)cc1NS(=O)(=O)c1ccc(Cl)c(C(F)(F)F)c1 [3-{[4-chloro-2-({[4-chloro-3-(trifluoromethyl)phenyl]sulfonyl}amino)phenyl]sulfonyl}-N,N-dimethylpropanamide]",93,0.217

Compound,CCR2 % ANTAGONISM [%],IC50 [µM]
N#Cc1ccc(S(=O)(=O)Cc2ccccc2)c(NS(=O)(=O)c2cc3ccccc3o2)c1 [N-[2-(benzylsulfonyl)-5-cyanophenyl]-1-benzofuran-2-sulfonamide],95,0.056
"Cc1n[nH]c(C)c1CCSc1ccc(Cl)cc1NS(=O)(=O)c1cc2ccccc2o1 [N-(5-chloro-2-{[2-(3,5-dimethyl-1H-pyrazol-4-yl)ethyl]thio}phenyl)-1-benzofuran-2-sulfonamide]",89,0.279
O=S(=O)(Nc1cc(Cl)ccc1SCCc1ccccn1)c1cc2ccccc2o1 [N-{5-chloro-2-[(2-pyridin-2-ylethyl)thio]phenyl}-1-benzofuran-2-sulfonamide],84,0.713
Nc1cccc(CSc2ccc(Cl)cc2NS(=O)(=O)c2ccc(Cl)cc2F)c1 [N-{2-[(3-aminobenzyl)thio]-5-chlorophenyl}-4-chloro-2-fluorobenzenesulfonamide],88,2.82
"CC(C)(C)OC(=O)Nc1nc(CS(=O)(=O)c2ccc(Cl)cc2NS(=O)(=O)c2cc3ccccc3o2)cs1 [tert-butyl {4-[({2-[(1-benzofuran-2-ylsulfonyl)amino]-4-chlorophenyl}sulfonyl)methyl]-1,3-thiazol-2-yl}carbamate]",72,
CN(C)CCC[S+]([O-])c1ccc(Cl)cc1NS(=O)(=O)c1cc2ccccc2o1 (stereo not drawn) [N-(5-chloro-2-{[3-(dimethylamino)propyl]sulfinyl}phenyl)-1-benzofuran-2-sulfonamide],81,
"Nc1cccc(CSc2ccc(Cl)cc2NS(=O)(=O)c2ccc(F)cc2F)c1 [N-{2-[(3-aminobenzyl)thio]-5-chlorophenyl}-2,4-difluorobenzenesulfonamide]",64,3.24
O=S(=O)(Nc1cc(Cl)ccc1SCCO)c1ccc(Cl)c(C(F)(F)F)c1 [4-chloro-N-{5-chloro-2-[(2-hydroxyethyl)thio]phenyl}-3-(trifluoromethyl)benzenesulfonamide],88,0.153
CC(C)(C)OC(=O)Nc1cc(CS(=O)(=O)c2ccc(Cl)cc2NS(=O)(=O)c2cc3ccccc3o2)cc[n+]1[O-] [tert-butyl {4-[({2-[(1-benzofuran-2-ylsulfonyl)amino]-4-chlorophenyl}sulfonyl)methyl]-1-oxidopyridin-2-yl}carbamate],29,2.87
O=[N+]([O-])c1cccc(CS(=O)(=O)c2ccccc2NS(=O)(=O)c2cc3ccccc3o2)c1 [N-{2-[(3-nitrobenzyl)sulfonyl]phenyl}-1-benzofuran-2-sulfonamide],83,2.13
NCCCS(=O)(=O)c1ccc(Cl)cc1NS(=O)(=O)c1cc2ccccc2o1 [N-{2-[(3-aminopropyl)sulfonyl]-5-chlorophenyl}-1-benzofuran-2-sulfonamide],82,
CNC(=O)CS(=O)(=O)c1ccc(Cl)cc1NS(=O)(=O)c1ccc(Cl)c(C(F)(F)F)c1 [2-{[4-chloro-2-({[4-chloro-3-(trifluoromethyl)phenyl]sulfonyl}amino)phenyl]sulfonyl}-N-methylacetamide],96,0.469
CCCn1cnc(C[S+]([O-])c2ccc(Cl)cc2NS(=O)(=O)c2cc3ccccc3o2)c1 (stereo not drawn) [N-(5-chloro-2-{[(1-propyl-1H-imidazol-4-yl)methyl]sulfinyl}phenyl)-1-benzofuran-2-sulfonamide],93,0.806
CNC(=O)C[S+]([O-])c1ccc(Cl)cc1NS(=O)(=O)c1ccc(Cl)c(C(F)(F)F)c1 (stereo not drawn) [2-{[4-chloro-2-({[4-chloro-3-(trifluoromethyl)phenyl]sulfonyl}amino)phenyl]sulfinyl}-N-methylacetamide],91,0.329
CS(=O)(=O)c1ccc(Cl)cc1NS(=O)(=O)c1ccc(Cl)c(C(F)(F)F)c1 [4-chloro-N-[5-chloro-2-(methylsulfonyl)phenyl]-3-(trifluoromethyl)benzenesulfonamide],90,0.064
"CS(=O)(=O)c1ccc(Cl)cc1NS(=O)(=O)c1ccc(F)cc1F [N-[5-chloro-2-(methylsulfonyl)phenyl]-2,4-difluorobenzenesulfonamide]",91,0.354
O=S(=O)(Cc1cc[nH]n1)c1ccc(Cl)cc1NS(=O)(=O)c1cc2ccccc2o1 [N-{5-chloro-2-[(1H-pyrazol-3-ylmethyl)sulfonyl]phenyl}-1-benzofuran-2-sulfonamide],102,0.367
